Source: ChEMBL document CHEMBL1240377, “Comparison of anidulafungin MICs determined by the clinical and laboratory standards institute broth microdilution method (M27-A3 document) and Etest for Candida species isolates” (2010)
Converted amounts (≈) assume the structure as drawn. *1 amine or outer side, *2 acyl side, *3 side chain or, on linkers, in order; H or OH if unused. Where a SMILES comes first, the peptide text is derived from it. Bridges are numbered along the chain shown (N, C = ends). [ ]: non-standard residue; d: D form. The star is where a group is joined. hTyr(3S-OH,4S-OH,3'-OSO3H) = N[C@H](C(=O)O)[C@H](O)[C@@H](O)c1ccc(O)c(OS(=O)(=O)O)c1; pTerphenylCO(4''-OnC5H11) = CCCCCOc1ccc(-c2ccc(-c3ccc(C(=O)*)cc3)cc2)cc1; Orn(4R-OH,5R-OH) = O=C([C@H](C[C@@H](O)[C@@H](O)N[*:3])N[*:1])[*:2]; hTyr(3S-OH,4S-OH) = N[C@H](C(=O)O)[C@H](O)[C@@H](O)c1ccc(O)cc1; Pro(3S-OH,4S-Me) = C[C@H]1CN[C@H](C(=O)O)[C@H]1O; X1 = CCCCCOc1ccc(-c2cc(-c3ccc(C(=O)*)cc3)no2)cc1; Gln(3R-OH) = NC(=O)C[C@@H](O)[C@H](N)C(=O)O; Hyp = O=C(O)[C@@H]1C[C@@H](O)CN1

Tests used:
Type in all cases: functional
Candida albicans [1] = assay: Antimicrobial activity against caspofungin-resistant Candida albicans T25 by Etest
Candida albicans [2] = assay: Antimicrobial activity against caspofungin-resistant Candida albicans NR3 expressing homozygous […] mutant gene by CLSI M27-A3 broth microdilution method
Candida albicans [3] = assay: Antimicrobial activity against caspofungin-resistant Candida albicans NR4 expressing heterozygous […] mutant gene by CLSI M27-A3 broth microdilution method
Nakaseomyces glabratus [4] = assay: Antimicrobial activity against Candida glabrata after 24 hrs by CLSI M27-A3 broth microdilution method
Debaryomyces hansenii [5] = assay: Antimicrobial activity against Candida famata after 24 hrs by Etest
Candida albicans [6] = assay: Antimicrobial activity against caspofungin-resistant Candida albicans T26 by Etest
Candida albicans [7] = assay: Antimicrobial activity against caspofungin-resistant Candida albicans T25 by CLSI M27-A3 broth microdilution method
Candida albicans [8] = assay: Antimicrobial activity against caspofungin-resistant Candida albicans NR2 expressing heterozygous […] mutant gene by Etest
Candida albicans [9] = assay: Antimicrobial activity against Candida albicans after 24 hrs by Etest
Candida albicans [10] = assay: Antimicrobial activity against caspofungin-resistant Candida albicans T32 by Etest
Pichia kudriavzevii [11] = assay: Antimicrobial activity against caspofungin-susceptible Issatchenkia orientalis CY-118 CLSI by M27-A3 broth microdilution method
Pichia kudriavzevii [12] = assay: Antimicrobial activity against caspofungin-susceptible Candida krusei CY-118 by Etest
Pichia kudriavzevii [13] = assay: Antimicrobial activity against Issatchenkia orientalis after 24 hrs by CLSI M27-A3 broth microdilution method
Candida albicans [14] = assay: Antimicrobial activity against caspofungin-resistant Candida albicans NR2 expressing heterozygous […] mutant gene by CLSI M27-A3 broth microdilution method
Clavispora lusitaniae [15] = assay: Antimicrobial activity against Clavispora lusitaniae ATCC 42720 after 24 hrs by CLSI M27-A3 broth microdilution method; conditions: ATCC 42720, 24 h
Debaryomyces hansenii [16] = assay: Antimicrobial activity against Candida famata after 24 hrs by CLSI M27-A3 broth microdilution method
Candida albicans [17] = assay: Antimicrobial activity against Candida albicans after 24 hrs CLSI M27-A3 broth microdilution method
Candida albicans [18] = assay: Antimicrobial activity against caspofungin-resistant Candida albicans CAI4R1 expressing heterozygous […] mutant gene by Etest
Nakaseomyces glabratus [19] = assay: Antimicrobial activity against Candida glabrata after 24 hrs by Etest
Candida albicans [20] = assay: Antimicrobial activity against caspofungin-resistant Candida albicans NR3 expressing homozygous […] mutant gene by Etest
Candida parapsilosis [21] = assay: Antimicrobial activity against Candida parapsilosis after 24 hrs by Etest; conditions: Lodderomyces parapsilosis
[22] = tested on: Meyerozyma guilliermondii; assay: Antimicrobial activity against Pichia guilliermondii ATCC 6260 after 24 hrs by Etest; conditions: ATCC 6260, 24 h
Candida albicans [23] = assay: Antimicrobial activity against caspofungin-resistant Candida albicans NR4 expressing heterozygous […] mutant gene by Etest
Candida albicans [24] = assay: Antimicrobial activity against caspofungin-resistant Candida albicans CAI4 by CLSI M27-A3 broth microdilution method
Candida tropicalis [25] = assay: Antimicrobial activity against Candida tropicalis after 24 hrs by Etest
Candida albicans [26] = assay: Antimicrobial activity against caspofungin-resistant Candida albicans T26 by CLSI M27-A3 broth microdilution method
Candida albicans [27] = assay: Antimicrobial activity against caspofungin-resistant Candida albicans CAI4R1 expressing heterozygous […] mutant gene by CLSI M27-A3 broth microdilution method
Candida tropicalis [28] = assay: Antimicrobial activity against Candida tropicalis after 24 hrs by CLSI M27-A3 broth microdilution method
Pichia kudriavzevii [29] = assay: Antimicrobial activity against Issatchenkia orientalis after 24 hrs by Etest
Candida albicans [30] = assay: Antimicrobial activity against caspofungin-resistant Candida albicans CAI4 by Etest
Clavispora lusitaniae [31] = assay: Antimicrobial activity against Clavispora lusitaniae ATCC 42720 after 24 hrs by Etest; conditions: ATCC 42720, 24 h
[32] = tested on: Meyerozyma guilliermondii; assay: Antimicrobial activity against Pichia guilliermondii ATCC 6260 after 24 hrs by CLSI M27-A3 broth microdilution method; conditions: ATCC 6260, 24 h
Candida parapsilosis [33] = assay: Antimicrobial activity against Candida parapsilosis after 24 hrs by CLSI M27-A3 broth microdilution method; conditions: Lodderomyces parapsilosis
Candida albicans [34] = assay: Antimicrobial activity against caspofungin-resistant Candida albicans T32 by CLSI M27-A3 broth microdilution method

Question: Which MIC (Candida albicans [1]) does the source give for `CCCCCOc1ccc(-c2ccc(-c3ccc(C(=O)N[C@H]4C[C@@H](O)[C@@H](O)NC(=O)[C@@H]5[C@@H](O)[C@@H](C)CN5C(=O)[C@H]([C@@H](C)O)NC(=O)[C@H]([C@H](O)[C@@H](O)c5ccc(O)cc5)NC(=O)[C@@H]5C[C@@H](O)CN5C(=O)[C@H]([C@@H](C)O)NC4=O)cc3)cc2)cc1` [ANIDULAFUNGIN] ({pTerphenylCO(4''-OnC5H11)}-[Orn(4R-OH,5R-OH)]T[Hyp][hTyr(3S-OH,4S-OH)]T[Pro(3S-OH,4S-Me)]; lactam 1-C) here?
Answer: 2 µg/mL (≈ 1.75 µM)

Question: And the MIC (Candida albicans [2])?
Answer: 1 µg/mL (≈ 0.877 µM)

Question: And the MIC (Candida albicans [3])?
Answer: 0.25 µg/mL (≈ 0.219 µM)

Question: What about the MIC50 (Nakaseomyces glabratus [4]) of the same compound?
Answer: 0.03 µg/mL (≈ 0.0263 µM)

Question: And the MIC90 (Nakaseomyces glabratus [4])?
Answer: 0.12 µg/mL (≈ 0.105 µM)

Question: And the MIC (Debaryomyces hansenii [5])?
Answer: 0.06 µg/mL (≈ 0.0526 µM)

Question: And the MIC50 (Debaryomyces hansenii [5])?
Answer: 0.06 µg/mL (≈ 0.0526 µM)

Question: And the MIC (Candida albicans [6])?
Answer: 0.5 µg/mL (≈ 0.438 µM)

Question: And the MIC (Candida albicans [7])?
Answer: 1 µg/mL (≈ 0.877 µM)

Question: What about the MIC (Candida albicans [8]) of the same compound?
Answer: 1 µg/mL (≈ 0.877 µM)

Question: What about the MIC50 (Candida albicans [9]) of the same compound?
Answer: 0.016 µg/mL (≈ 0.014 µM)

Question: And the MIC90 (Candida albicans [9])?
Answer: 1 µg/mL (≈ 0.877 µM)

Question: And the MIC (Candida albicans [10])?
Answer: ≤ 0.032 µg/mL

Question: And the MIC (Pichia kudriavzevii [11])?
Answer: 0.5 µg/mL (≈ 0.438 µM)

Question: What about the MIC (Pichia kudriavzevii [12]) of the same compound?
Answer: ≤ 0.032 µg/mL

Question: And the MIC50 (Pichia kudriavzevii [13])?
Answer: 0.03 µg/mL (≈ 0.0263 µM)

Question: What about the MIC90 (Pichia kudriavzevii [13]) of the same compound?
Answer: 0.12 µg/mL (≈ 0.105 µM)

Question: And the MIC (Candida albicans [14])?
Answer: 0.12 µg/mL (≈ 0.105 µM)

Question: What about the MIC (Clavispora lusitaniae [15]) of the same compound?
Answer: 0.03 µg/mL (≈ 0.0263 µM)

Question: And the MIC50 (Clavispora lusitaniae [15])?
Answer: 0.03 µg/mL (≈ 0.0263 µM)

Question: And the MIC (Debaryomyces hansenii [16])?
Answer: 0.03 µg/mL (≈ 0.0263 µM)

Question: And the MIC50 (Debaryomyces hansenii [16])?
Answer: 0.03 µg/mL (≈ 0.0263 µM)

Question: And the MIC50 (Candida albicans [17])?
Answer: 0.016 µg/mL (≈ 0.014 µM)

Question: What about the MIC90 (Candida albicans [17]) of the same compound?
Answer: 0.25 µg/mL (≈ 0.219 µM)

Question: And the MIC (Candida albicans [18])?
Answer: 2 µg/mL (≈ 1.75 µM)

Question: What about the MIC50 (Nakaseomyces glabratus [19]) of the same compound?
Answer: 0.016 µg/mL (≈ 0.014 µM)

Question: And the MIC90 (Nakaseomyces glabratus [19])?
Answer: 0.016 µg/mL (≈ 0.014 µM)

Question: What about the MIC (Candida albicans [20]) of the same compound?
Answer: 32 µg/mL (≈ 28.1 µM)

Question: What about the MIC50 (Candida parapsilosis [21]) of the same compound?
Answer: 2 µg/mL (≈ 1.75 µM)

Question: What about the MIC90 (Candida parapsilosis [21]) of the same compound?
Answer: 8 µg/mL (≈ 7.02 µM)

Question: And the MIC50 [22]?
Answer: 1 µg/mL (≈ 0.877 µM)

Question: And the MIC90 [22]?
Answer: 8 µg/mL (≈ 7.02 µM)

Question: What about the MIC (Candida albicans [23]) of the same compound?
Answer: 0.5 µg/mL (≈ 0.438 µM)

Question: And the MIC (Candida albicans [24])?
Answer: ≤ 0.032 µg/mL

Question: What about the MIC (Candida tropicalis [25]) of the same compound?
Answer: ≤ 0.016 µg/mL

Question: And the MIC (Candida albicans [26])?
Answer: 1 µg/mL (≈ 0.877 µM)

Question: And the MIC (Candida albicans [27])?
Answer: 0.5 µg/mL (≈ 0.438 µM)

Question: And the MIC (Candida tropicalis [28])?
Answer: ≤ 0.016 µg/mL

Question: What about the MIC50 (Pichia kudriavzevii [29]) of the same compound?
Answer: 0.03 µg/mL (≈ 0.0263 µM)

Question: And the MIC90 (Pichia kudriavzevii [29])?
Answer: 0.5 µg/mL (≈ 0.438 µM)

Question: And the MIC (Candida albicans [30])?
Answer: ≤ 0.032 µg/mL

Question: And the MIC (Clavispora lusitaniae [31])?
Answer: 0.06 µg/mL (≈ 0.0526 µM)

Question: And the MIC50 (Clavispora lusitaniae [31])?
Answer: 0.06 µg/mL (≈ 0.0526 µM)

Question: What about the MIC50 [32] of the same compound?
Answer: 1 µg/mL (≈ 0.877 µM)

Question: What about the MIC90 [32] of the same compound?
Answer: 1 µg/mL (≈ 0.877 µM)

Question: What about the MIC50 (Candida parapsilosis [33]) of the same compound?
Answer: 0.5 µg/mL (≈ 0.438 µM)

Question: And the MIC90 (Candida parapsilosis [33])?
Answer: 4 µg/mL (≈ 3.51 µM)

Question: And the MIC (Candida albicans [34])?
Answer: 0.032 µg/mL (≈ 0.0281 µM)

Question: Which results are given for `CC[C@H](C)C[C@H](C)CCCCCCCCC(=O)N[C@H]1C[C@@H](O)[C@@H](NCCN)NC(=O)[C@@H]2[C@@H](O)CCN2C(=O)[C@H]([C@H](O)CCN)NC(=O)[C@H]([C@H](O)[C@@H](O)c2ccc(O)cc2)NC(=O)[C@@H]2C[C@@H](O)CN2C(=O)[C@H]([C@@H](C)O)NC1=O` [CASPOFUNGIN]?
Answer: MIC (Candida albicans [2]): 8 µg/mL (≈ 7.32 µM); MIC (Candida albicans [3]): 2 µg/mL (≈ 1.83 µM); MIC (Candida albicans [7]): 8 µg/mL (≈ 7.32 µM); MIC (Pichia kudriavzevii [11]): 4 µg/mL (≈ 3.66 µM); MIC (Candida albicans [14]): 4 µg/mL (≈ 3.66 µM); MIC (Candida albicans [24]): ≤ 0.032 µg/mL; MIC (Candida albicans [26]): 8 µg/mL (≈ 7.32 µM); MIC (Candida albicans [27]): 4 µg/mL (≈ 3.66 µM); MIC (Candida albicans [34]): 0.25 µg/mL (≈ 0.229 µM)

Question: How did the MIC (Candida albicans [2]) turn out when `CCCCCOc1ccc(-c2cc(-c3ccc(C(=O)N[C@H]4C[C@@H](O)[C@@H](O)NC(=O)[C@@H]5[C@@H](O)[C@@H](C)CN5C(=O)[C@H]([C@H](O)CC(N)=O)NC(=O)[C@H]([C@H](O)[C@@H](O)c5ccc(O)c(OS(=O)(=O)O)c5)NC(=O)[C@@H]5C[C@@H](O)CN5C(=O)[C@H]([C@@H](C)O)NC4=O)cc3)no2)cc1` [MICAFUNGIN] (X1-[Orn(4R-OH,5R-OH)]T[Hyp][hTyr(3S-OH,4S-OH,3'-OSO3H)][Gln(3R-OH)][Pro(3S-OH,4S-Me)]; lactam 1-C) was run?
Answer: 1 µg/mL (≈ 0.787 µM)

Question: What about the MIC (Candida albicans [3]) of the same compound?
Answer: 0.25 µg/mL (≈ 0.197 µM)

Question: And the MIC (Candida albicans [7])?
Answer: 1 µg/mL (≈ 0.787 µM)

Question: And the MIC (Pichia kudriavzevii [11])?
Answer: 1 µg/mL (≈ 0.787 µM)

Question: What about the MIC (Candida albicans [14]) of the same compound?
Answer: 0.25 µg/mL (≈ 0.197 µM)

Question: What about the MIC (Candida albicans [24]) of the same compound?
Answer: ≤ 0.032 µg/mL

Question: What about the MIC (Candida albicans [26]) of the same compound?
Answer: 1 µg/mL (≈ 0.787 µM)

Question: And the MIC (Candida albicans [27])?
Answer: 0.25 µg/mL (≈ 0.197 µM)

Question: And the MIC (Candida albicans [34])?
Answer: ≤ 0.032 µg/mL
